# Reference: ChEMBL document CHEMBL5131397, “Discovery and Optimization of Pyrazole Amides as Inhibitors of ELOVL1” (J Med Chem, 2021)
# Columns and labels:
# [1] = target: T1, Very long chain fatty acid elongase 1 (Homo sapiens, UniProt Q9BW60); test: Inhibition of ELOVL1 in human HEK2936E cells assessed as reduction of C26:0 LPC synthesis incubated for 48 hrs by cellular assay; format: cell-based
# T1 sequence (Q9BW60 whole entry): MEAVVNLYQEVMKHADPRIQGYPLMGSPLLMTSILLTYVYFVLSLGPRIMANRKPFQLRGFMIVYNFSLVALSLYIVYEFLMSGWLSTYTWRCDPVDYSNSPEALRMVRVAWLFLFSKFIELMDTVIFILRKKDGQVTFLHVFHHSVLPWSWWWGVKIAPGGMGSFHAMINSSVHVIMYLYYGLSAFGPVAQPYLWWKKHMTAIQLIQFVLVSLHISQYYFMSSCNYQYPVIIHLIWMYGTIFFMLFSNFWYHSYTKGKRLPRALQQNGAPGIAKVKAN
# [2] = target: T1, Very long chain fatty acid elongase 1; test: Inhibition of ELOVL1 (unknown origin) using C22-acyl-CoA as substrate by radiometric enzyme assay
# [3] = Intrinsic clearance in rat hepatocytes assessed per million cells; format: ADME, cell-based, Hepatocyte; conditions: read-out: CLH
# [4] = Intrinsic clearance in human hepatocytes assessed per million cells; format: ADME, cell-based, Hepatocyte; conditions: read-out: CLH
# [5] = target: T2, Very long chain fatty acid elongase 7 (Homo sapiens, UniProt A1L3X0); test: Inhibition of ELOVL7 (unknown origin) using C18-acyl-CoA as substrate by radiometric enzyme assay
# T2 sequence (A1L3X0 whole entry): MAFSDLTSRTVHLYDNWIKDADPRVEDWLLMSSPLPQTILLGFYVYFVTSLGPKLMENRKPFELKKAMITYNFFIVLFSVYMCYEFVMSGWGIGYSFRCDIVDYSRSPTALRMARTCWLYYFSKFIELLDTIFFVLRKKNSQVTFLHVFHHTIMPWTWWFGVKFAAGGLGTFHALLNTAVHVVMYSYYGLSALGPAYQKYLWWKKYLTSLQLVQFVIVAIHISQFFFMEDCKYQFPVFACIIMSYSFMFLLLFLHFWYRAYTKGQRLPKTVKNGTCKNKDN
# [6] = target: T3, Very long chain fatty acid elongase 6 (Homo sapiens, UniProt Q9H5J4); test: Inhibition of ELOVL6 (unknown origin) using C16-acyl-CoA as substrate by radiometric enzyme assay
# T3 sequence (Q9H5J4 whole entry): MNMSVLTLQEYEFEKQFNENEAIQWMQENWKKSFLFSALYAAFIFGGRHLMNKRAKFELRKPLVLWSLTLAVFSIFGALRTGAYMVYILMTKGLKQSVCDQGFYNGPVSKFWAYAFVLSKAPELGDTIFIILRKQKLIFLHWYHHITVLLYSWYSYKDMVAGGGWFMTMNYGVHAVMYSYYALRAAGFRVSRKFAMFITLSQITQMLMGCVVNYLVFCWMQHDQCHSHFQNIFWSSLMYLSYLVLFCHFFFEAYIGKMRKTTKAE
# [7] = Reduction in C26:0 LPC level in ABCD1 (-/y) knock out mouse brain at 0.4 to 2 mg/kg, ip administered daily measured after 4.5 months by LC-MS/MS analysis; format: functional; design: scale not given: the % may be the effect or the level left; conditions: dose 0.4-2 mg/kg, 3285 h
SMILES,IC50 [1] [nM],IC50 [2] [nM],hepatocyte CLint [3] [µL/min/1e6 cells],hepatocyte CLint [4] [µL/min/1e6 cells],IC50 [5] [nM],IC50 [6] [nM],Activity [7] [%]
O=C(Nc1ccn(-c2ccnc(C(F)(F)F)c2)n1)C1(c2ccccc2F)CC1,> 5000,> 50000,51,8,–,–,–
C[C@@H](C(=O)Nc1ccn(-c2ccccc2)n1)c1ccccc1,210,1600,313,56,–,–,–
Cc1ccccc1C1(C(=O)Nc2ccn(-c3cncc(F)c3)n2)CC1,400,7500,400,40,–,–,–
O=C(Nc1ccn(-c2cncc(F)c2)n1)C1(c2c(F)cccc2F)CC1,17,1200,13,4,–,–,–
O=C(Nc1ccn(-c2ccccc2)n1)C1(c2ccccc2)CC1,20,500,111,38,–,–,–
O=C(Nc1ccn(-c2cncc(F)c2)n1)C1(c2ccccc2F)CC1,18,1200,68,10,–,–,–
COc1cc(-n2ccc(NC(=O)C3(c4ccccc4F)CC3)n2)ccn1,50,1200,130,11,–,–,–
N#Cc1ccccc1C1(C(=O)Nc2ccn(-c3cncc(F)c3)n2)CC1,2500,23000,13,5,–,–,–
O=C(Nc1ccn(-c2cncc(F)c2)n1)C1(c2ccccc2Cl)CC1,110,4500,61,8,–,–,–
O=C(Nc1ccn(-c2cncc(F)c2)n1)C1(c2ccccc2)CC1,22,560,50,7,–,–,–
Cc1cc(OCC(=O)O)cc(C)c1Cc1ccc(O)c(C(C)C)c1 [SOBETIROME],–,–,–,–,–,–,21
CC1(C)CC1(C(=O)Nc1ccn(-c2ccccc2)n1)c1ccccc1 (stereo not drawn),900,4400,239,50,–,–,–
COc1ccc(C2(C(=O)Nc3ccn(-c4cncc(F)c4)n3)CC2)cc1,640,3700,103,11,–,–,–
O=C(Nc1ccn(-c2ccncn2)n1)C1(c2ccccc2F)CC1,30,900,59,14,–,–,–
Cc1cc(-n2ccc(NC(=O)C3(c4ccccc4F)CC3)n2)ccn1,1600,21000,78,7,–,–,–
O=C(Nc1ccn(-c2ncns2)n1)C1(c2ccccc2F)CC1,18,400,25,14,–,–,–
CN(C)C(C(=O)Nc1ccn(-c2ccccc2)n1)c1ccccc1 (stereo not drawn),1700,> 50000,–,–,–,–,–

SMILES,IC50 [1] [nM],IC50 [2] [nM],hepatocyte CLint [3] [µL/min/1e6 cells],hepatocyte CLint [4] [µL/min/1e6 cells],IC50 [5] [nM],IC50 [6] [nM],Activity [7] [%]
N#Cc1ccc(C2(C(=O)Nc3ccn(-c4cncc(F)c4)n3)CC2)cc1,110,2200,8,5,–,–,–
O=C(Nc1ccn(-c2ccccc2)n1)C1(c2ccccc2)COC1,260,8200,32,31,–,–,–
O=C(Nc1ccn(-c2ccccc2)n1)C1(c2ccccc2)CC1(F)F (stereo not drawn),140,980,278,194,–,–,–
O=C(Nc1ccn(-c2cncc(F)c2)n1)C1(c2ccc(Cl)cc2)CC1,340,2400,133,5,–,–,–
C[C@H](C(=O)Nc1ccn(-c2ccccc2)n1)c1ccccc1,38,2000,308,37,–,–,–
O=C(Nc1ccn(-c2ccncc2)n1)C1(c2ccccc2F)CC1,80,1500,80,–,–,–,–
O=C(Nc1ccn(-c2cncc(F)c2)n1)C1(c2cccc(F)c2)CC1,190,1600,97,8,–,–,–
O=C(Nc1ccn(-c2cncc(F)c2)n1)C1(c2cccc(F)c2F)CC1,140,1300,54,6,–,–,–
N#Cc1cccc(C2(C(=O)Nc3ccn(-c4cncc(F)c4)n3)CC2)c1,310,2300,60,4,–,–,–
O=C(Nc1ccn(-c2cncc(F)c2)n1)C1(c2cc(F)ccc2F)CC1,170,550,25,6,–,–,–
CC(C)(C(=O)Nc1ccn(-c2ccccc2)n1)c1ccccc1,300,2700,262,18,–,–,–
O=C(Nc1ccn(-c2cncc(F)c2)n1)C1(c2ccc(F)cc2)CC1,100,830,88,4,–,–,–
COc1cccc(C2(C(=O)Nc3ccn(-c4cncc(F)c4)n3)CC2)c1,170,1500,355,19,–,–,–
O=C(Nc1nc(-c2ccccc2)cs1)C1CCCO1 (stereo not drawn),–,30000,–,–,> 100000,> 100000,–
COc1ccccc1C1(C(=O)Nc2ccn(-c3cncc(F)c3)n2)CC1,> 5000,> 50000,–,–,–,–,–
O=C(Nc1ccn(-c2ccc(F)nc2)n1)C1(c2ccccc2F)CC1,23,800,23,6,–,–,–
CCOC(C(=O)Nc1ccn(-c2ccccc2)n1)c1ccccc1 (stereo not drawn),> 5000,> 50000,–,–,–,–,–

# Further lines, with some results ahead:
IC50 [1] [nM],IC50 [2] [nM],hepatocyte CLint [3] [µL/min/1e6 cells],hepatocyte CLint [4] [µL/min/1e6 cells],IC50 [5] [nM],IC50 [6] [nM],SMILES,Activity [7] [%]
> 5000,> 50000,–,–,–,–,O=C(Cc1ccccc1F)Nc1nccc(-c2ccccc2)n1,–
500,4000,398,127,–,–,O=C(Cc1ccccc1)Nc1nc(-c2ccccc2)cs1,–
650,9500,123,88,–,–,CC[C@@H](C(=O)Nc1ccn(-c2ccccc2)n1)c1ccccc1,–
–,1800,–,–,> 100000,> 100000,O=C(Nc1nc(-c2ccncc2)cs1)C1(c2ccccc2)CC1,–
60,1600,182,55,–,–,O=C(Cc1ccccc1F)Nc1ccn(-c2ccccc2)n1,–
280,3200,281,102,–,–,O=C(Cc1ccccc1F)Nc1nc(-c2ccccc2)cs1,–
900,> 8000,518,101,–,–,O=C(Cc1ccccc1F)Nc1cnn(-c2ccccc2)n1,–
–,> 50000,–,–,–,–,O=C(Cc1ccccc1F)Nc1ncc(-c2ccccc2)o1,–
12,500,237,30,–,–,O=C(Nc1ccn(-c2ccccc2)n1)C1(c2ccccc2F)CC1,–
–,4400,–,–,> 100000,> 100000,O=C(Cc1ccccc1F)Nc1nc(-c2ccnc(F)c2)cs1,–
> 5000,> 50000,–,–,–,–,O=C(Cc1ccccc1F)Nc1ncn(-c2ccccc2)n1,–
> 5000,> 50000,–,–,–,–,O=C(Cc1ccccc1F)Nc1cnn(-c2ccccc2)c1,–
1900,> 20000,54,9,–,–,Nc1cc(-n2ccc(NC(=O)C3(c4ccccc4F)CC3)n2)ccn1,–
70,2700,519,90,–,–,O=C(Cc1ccccc1)Nc1ccn(-c2ccccc2)n1,–
–,> 50000,–,–,–,–,O=C(Cc1ccccc1F)Nc1ccnc(-c2ccccc2)n1,–
> 5000,> 50000,–,–,–,–,O=C(Cc1ccccc1F)Nc1cccc(-c2ccccc2)n1,–
